# Test results as given in PubChem BioAssay (NCI).
#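 Briefly, cells in 96-well plates were exposed to five compound concentrations for 48 h, and endpoints were estimated by linear interpolation. The concentration for 50% growth inhibition is given as GI50. At the TGI there is no net growth.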
# What was measured:
# Assay in all cases: inhibition of tumour cell growth, NCI panel, 48 h
# CAKI-1 renal = test system: CAKI-1 renal
# MCF7 breast = test system: MCF7 breast
# KM12 colon = test system: KM12 colon
# K-562 leukemia = test system: K-562 leukemia
# SF-268 CNS = test system: SF-268 CNS
# 786-0 renal = test system: 786-0 renal
# ACHN renal = test system: ACHN renal
# SNB-19 CNS = test system: SNB-19 CNS
# PC-3 prostate = test system: PC-3 prostate
# SK-MEL-28 melanoma = test system: SK-MEL-28 melanoma
# NCI-H23 lung = test system: NCI-H23 lung
# SF-295 CNS = test system: SF-295 CNS
# HCC-2998 colon = test system: HCC-2998 colon
# OVCAR-8 ovarian = test system: OVCAR-8 ovarian
# LOX IMVI melanoma = test system: LOX IMVI melanoma
# M14 melanoma = test system: M14 melanoma
# NCI-H460 lung = test system: NCI-H460 lung
# OVCAR-4 ovarian = test system: OVCAR-4 ovarian
# OVCAR-3 ovarian = test system: OVCAR-3 ovarian
# HL-60(TB) leukemia = test system: HL-60(TB) leukemia
# SK-MEL-2 melanoma = test system: SK-MEL-2 melanoma
# SW-620 colon = test system: SW-620 colon
# EKVX NSCLC = test system: EKVX NSCLC
# T-47D breast = test system: T-47D breast
# RPMI-8226 leukemia = test system: RPMI-8226 leukemia
# U251 CNS = test system: U251 CNS
# SNB-75 CNS = test system: SNB-75 CNS
# NCI-H522 lung = test system: NCI-H522 lung
# SR leukemia = test system: SR leukemia
# NCI-H226 lung = test system: NCI-H226 lung
# HOP-62 NSCLC = test system: HOP-62 NSCLC
# A498 renal = test system: A498 renal
# SN12C renal = test system: SN12C renal
# A549 NSCLC = test system: A549 NSCLC
# OVCAR-5 ovarian = test system: OVCAR-5 ovarian
# BT-549 breast = test system: BT-549 breast
# MALME-3M melanoma = test system: MALME-3M melanoma
# UO-31 renal = test system: UO-31 renal
# HCT-116 colon = test system: HCT-116 colon
# SK-MEL-5 melanoma = test system: SK-MEL-5 melanoma
# DU-145 prostate = test system: DU-145 prostate
# HCT-15 colon = test system: HCT-15 colon
# UACC-62 melanoma = test system: UACC-62 melanoma
# RXF 393 renal = test system: RXF 393 renal
# IGROV1 ovarian = test system: IGROV1 ovarian
# HS 578T breast = test system: HS 578T breast
# CCRF-CEM leukemia = test system: CCRF-CEM leukemia
# UACC-257 melanoma = test system: UACC-257 melanoma
# MDA-MB-231 breast = test system: MDA-MB-231 breast
# NCI/ADR-RES ovarian = test system: NCI/ADR-RES ovarian
# MOLT-4 leukemia = test system: MOLT-4 leukemia
# TK-10 renal = test system: TK-10 renal
# COLO 205 colon = test system: COLO 205 colon
# MDA-MB-435 = test system: MDA-MB-435
# SK-OV-3 ovarian = test system: SK-OV-3 ovarian
# SF-539 CNS = test system: SF-539 CNS
# HT29 colon = test system: HT29 colon
# HOP-92 NSCLC = test system: HOP-92 NSCLC
structure (smiles),measurement,setting,value
O=C(OC1=CCN(Br)C1=O)C1=C(O)C(=O)N(Br)C1,TGI,CAKI-1 renal,> 100 µM
same,TGI,MCF7 breast,> 100 µM
same,TGI,KM12 colon,> 100 µM
same,TGI,K-562 leukemia,> 100 µM
same,TGI,SF-268 CNS,67.3 µM
same,TGI,786-0 renal,30.4 µM
same,TGI,ACHN renal,> 100 µM
same,TGI,SNB-19 CNS,43.6 µM
same,TGI,PC-3 prostate,> 100 µM
same,TGI,SK-MEL-28 melanoma,41.4 µM
same,TGI,NCI-H23 lung,> 100 µM
same,TGI,SF-295 CNS,69.7 µM
same,TGI,HCC-2998 colon,> 100 µM
same,TGI,OVCAR-8 ovarian,> 100 µM
same,TGI,LOX IMVI melanoma,54 µM
same,TGI,M14 melanoma,> 100 µM
same,TGI,NCI-H460 lung,> 100 µM
same,TGI,OVCAR-4 ovarian,> 100 µM
same,TGI,OVCAR-3 ovarian,51.6 µM
same,TGI,HL-60(TB) leukemia,52.2 µM
same,TGI,SK-MEL-2 melanoma,> 100 µM
same,TGI,SW-620 colon,65.2 µM
same,TGI,EKVX NSCLC,77.8 µM
same,TGI,T-47D breast,45.2 µM
same,TGI,RPMI-8226 leukemia,> 100 µM
same,TGI,U251 CNS,58.1 µM
same,TGI,SNB-75 CNS,61.3 µM
same,TGI,NCI-H522 lung,31.4 µM
same,TGI,SR leukemia,52.3 µM
same,TGI,NCI-H226 lung,> 100 µM
same,TGI,HOP-62 NSCLC,51.7 µM
same,TGI,A498 renal,> 100 µM
same,TGI,SN12C renal,31 µM
same,TGI,A549 NSCLC,> 100 µM
same,TGI,OVCAR-5 ovarian,52.8 µM
same,TGI,BT-549 breast,46 µM
same,TGI,MALME-3M melanoma,> 100 µM
same,TGI,UO-31 renal,> 100 µM
same,TGI,HCT-116 colon,35.6 µM
same,TGI,SK-MEL-5 melanoma,33.5 µM
same,TGI,DU-145 prostate,> 100 µM
same,TGI,HCT-15 colon,> 100 µM
same,TGI,UACC-62 melanoma,36.3 µM
same,TGI,RXF 393 renal,38.5 µM
same,TGI,IGROV1 ovarian,> 100 µM
same,TGI,HS 578T breast,> 100 µM
same,TGI,CCRF-CEM leukemia,> 100 µM
same,TGI,UACC-257 melanoma,87.6 µM
same,TGI,MDA-MB-231 breast,86.3 µM
same,TGI,NCI/ADR-RES ovarian,> 100 µM
same,TGI,MOLT-4 leukemia,87.7 µM
same,TGI,TK-10 renal,> 100 µM
same,TGI,COLO 205 colon,54.4 µM
same,TGI,MDA-MB-435,> 100 µM
same,TGI,SK-OV-3 ovarian,71.2 µM
COc1ccc(Nc2nc(NCCNc3ccnc4cc(Cl)ccc34)nc(N3CCOCC3)n2)cc1,GI50,CAKI-1 renal,4.17 µM
same,TGI,CAKI-1 renal,17.5 µM
same,GI50,MCF7 breast,2.86 µM
same,TGI,MCF7 breast,12.8 µM
same,GI50,KM12 colon,5.18 µM
same,TGI,KM12 colon,18 µM
same,GI50,K-562 leukemia,2.09 µM
same,TGI,K-562 leukemia,7.82 µM
same,GI50,SF-268 CNS,5.02 µM
same,TGI,SF-268 CNS,19.5 µM
same,GI50,786-0 renal,2.11 µM
same,TGI,786-0 renal,12.3 µM
same,GI50,ACHN renal,4.77 µM
same,TGI,ACHN renal,18.1 µM
same,GI50,SNB-19 CNS,10.6 µM
same,TGI,SNB-19 CNS,23.6 µM
same,GI50,SF-539 CNS,2.18 µM
same,TGI,SF-539 CNS,7.54 µM
same,GI50,HT29 colon,1.07 µM
same,TGI,HT29 colon,3.75 µM
same,GI50,PC-3 prostate,3.94 µM
same,TGI,PC-3 prostate,19.8 µM
same,GI50,SK-MEL-28 melanoma,1.81 µM
same,TGI,SK-MEL-28 melanoma,3.28 µM
same,GI50,NCI-H23 lung,13.7 µM
same,TGI,NCI-H23 lung,29.7 µM
same,GI50,SF-295 CNS,2.05 µM
same,TGI,SF-295 CNS,3.92 µM
same,GI50,HCC-2998 colon,2.08 µM
same,TGI,HCC-2998 colon,3.88 µM
same,GI50,OVCAR-8 ovarian,6.46 µM
same,TGI,OVCAR-8 ovarian,27.4 µM
same,GI50,LOX IMVI melanoma,3.01 µM
same,TGI,LOX IMVI melanoma,10.6 µM
same,GI50,M14 melanoma,1.86 µM
same,TGI,M14 melanoma,3.47 µM
same,GI50,NCI-H460 lung,4.58 µM
same,TGI,NCI-H460 lung,19.3 µM
same,GI50,OVCAR-4 ovarian,9 µM
same,TGI,OVCAR-4 ovarian,24.5 µM
same,GI50,OVCAR-3 ovarian,11.5 µM
same,TGI,OVCAR-3 ovarian,24.3 µM
same,GI50,HL-60(TB) leukemia,1.13 µM
same,TGI,HL-60(TB) leukemia,12.7 µM
same,GI50,SK-MEL-2 melanoma,2.19 µM
same,TGI,SK-MEL-2 melanoma,4.28 µM
same,GI50,SW-620 colon,3.47 µM
same,TGI,SW-620 colon,13.4 µM
same,GI50,T-47D breast,11.6 µM
same,TGI,T-47D breast,28 µM
same,GI50,RPMI-8226 leukemia,2.75 µM
same,TGI,RPMI-8226 leukemia,13.1 µM
same,GI50,U251 CNS,3.1 µM
same,TGI,U251 CNS,15.4 µM
same,GI50,SNB-75 CNS,2.09 µM
same,TGI,SNB-75 CNS,8.73 µM
same,GI50,NCI-H522 lung,3.85 µM
same,TGI,NCI-H522 lung,11.5 µM
same,GI50,SR leukemia,2.01 µM
same,TGI,SR leukemia,7.36 µM
same,GI50,NCI-H226 lung,3.89 µM
same,TGI,NCI-H226 lung,18.3 µM
same,GI50,HOP-62 NSCLC,8.09 µM
same,TGI,HOP-62 NSCLC,21.6 µM
same,GI50,A498 renal,0.272 µM
same,TGI,A498 renal,2.19 µM
same,GI50,SN12C renal,8.73 µM
same,TGI,SN12C renal,23.4 µM
same,GI50,A549 NSCLC,4.87 µM
same,TGI,A549 NSCLC,20.3 µM
same,GI50,OVCAR-5 ovarian,15.7 µM
same,TGI,OVCAR-5 ovarian,31.4 µM
same,GI50,BT-549 breast,9.92 µM
same,TGI,BT-549 breast,22.1 µM
same,GI50,MALME-3M melanoma,1.94 µM
same,TGI,MALME-3M melanoma,3.47 µM
same,GI50,UO-31 renal,1.33 µM
same,TGI,UO-31 renal,14.2 µM
same,GI50,HCT-116 colon,3.01 µM
same,TGI,HCT-116 colon,14.8 µM
same,GI50,SK-MEL-5 melanoma,1.59 µM
same,TGI,SK-MEL-5 melanoma,3.04 µM
same,GI50,DU-145 prostate,9.8 µM
same,TGI,DU-145 prostate,21.9 µM
same,GI50,HCT-15 colon,2.63 µM
same,TGI,HCT-15 colon,10.9 µM
same,GI50,UACC-62 melanoma,1.85 µM
same,TGI,UACC-62 melanoma,3.59 µM
same,GI50,RXF 393 renal,1.89 µM
same,TGI,RXF 393 renal,8.92 µM
same,GI50,IGROV1 ovarian,8.43 µM
same,TGI,IGROV1 ovarian,23.4 µM
same,GI50,HOP-92 NSCLC,1.16 µM
same,TGI,HOP-92 NSCLC,13 µM
same,GI50,HS 578T breast,3.91 µM
same,TGI,HS 578T breast,24.1 µM
same,GI50,CCRF-CEM leukemia,2.95 µM
same,TGI,CCRF-CEM leukemia,15.4 µM
same,GI50,UACC-257 melanoma,1.87 µM
same,TGI,UACC-257 melanoma,3.61 µM
same,GI50,MDA-MB-231 breast,2.73 µM
same,TGI,MDA-MB-231 breast,10.2 µM
same,GI50,NCI/ADR-RES ovarian,6.38 µM
same,TGI,NCI/ADR-RES ovarian,24.9 µM
same,GI50,MOLT-4 leukemia,2.01 µM
same,TGI,MOLT-4 leukemia,11.2 µM
same,GI50,TK-10 renal,7.64 µM
same,TGI,TK-10 renal,20.6 µM
same,GI50,COLO 205 colon,1.53 µM
same,TGI,COLO 205 colon,3.33 µM
same,GI50,MDA-MB-435,1.82 µM
same,TGI,MDA-MB-435,3.49 µM
same,GI50,SK-OV-3 ovarian,11.7 µM
same,TGI,SK-OV-3 ovarian,24.6 µM
